Results: patent publication US20090088340A1, “METHODS FOR PREDICTING THE REDUCTION/OXIDATION (REDOX) REACTION ACTIVITY OF METAL COMPLEXES” (WESTERN CAROLINA UNIVERSITY, priority 2007, published 2009)
Read-outs that look alike come from different tables or passages of the source. Marks after values point to notes of the source that are not given here.

Tests used:
[1] = Metal/fluoride association from F^− 19F NMR transverse relaxation enhancement (CPMG); format: physicochemical; details: for ΔH^‡ (Anion Binding Data): manganese(II) complexes; for ΔH^‡ (Anion Binding Data) / kapp,X− (Anion Binding Data): metal/F^− association; for kapp,X− (Anion Binding Data) / kapp,X− (Flouride Association Reaction): 25° C., 90% H2O/10% D2O; for kapp,X− (Flouride Association Reaction) / ΔH^‡ (Flouride Association Reaction): iron(III) complexes; for ΔH^‡ (Flouride Association Reaction): activation enthalpy
Excerpt: CPMG is the standard technique for measuring transverse NMR relaxation times (T2). See, for example, Braun et al., “150 and More Basic NMR Experiments,” Wiley-VCH Weinheim, 1998, page 159.
Rate constants for metal/probe association reactions can be related directly to the effects of the metal complex on the NMR relaxation rates of probe nuclei.
R2,obs−R2,dia=kapp,F−[M] (6)
where R2,dia is the relaxation rate in diamagnetic solution and kapp,F− is the apparent second order rate constant for metal/F^− association. The effects of eleven paramagnetic metal complexes, Fe^IIIEDTA(H2O)^−, Fe^IIIEDTA(OH)^2−, Fe^IIIPDTA^−, Fe^IIIDTPA^2−, Fe^III2O(TTHA)^2−, Fe^III(CN)6^3−, Mn^IIEDTA(H2O)^2−, Mn^IIPDTA^2−, Mn^IIβ-EDDADP^2−, Mn^IIPO4^−, and Cu/Zn SOD on F^− ion ^19F NMR transverse relaxation rates (R2=1/T2) were studied in aqueous solutions as a function of temperature.
Without being bound to any one theory, the curvature of the plot can arise from a similarity in the magnitudes of outer-sphere and inner-sphere contributions to relaxation (R2,OS and R2,IS). See Dwek, R. A., Nuclear Magnetic Resonance in Biochemistry, Clarendon, Oxford, 1973. […] See Dwek, R. A., Nuclear Magnetic Resonance in Biochemistry, Clarendon, Oxford, 1973. To estimate the contribution of R2,OS, relaxation enhancement of the ^19F resonance of the trifluoroacetate anion (tfa) by Fe^IIIDTPA^2− was measured. R2,IS for the tfa resonance should be negligible due to the low basicity of the anion and the absence of a through bond pathway for magnetic interaction between the paramagnetic center and the ^19F nuclei. For the tfa resonance, R2,obs decreased with increasing temperature consistent with an outer-sphere interaction.
where α, β, and γ are constants. The γ term for F^− relaxation in Equation 7 was set equal to the slope of the least squares line for the tfa data, and ΔH^‡, α, and β were refined to give the curved trend line following the F^− data in FIG. 6. Dashed lines (a) and (b) in FIG. 6 represent the predicted outer-sphere and inner-sphere contributions to the relaxation rate, respectively. The 25° C. association rate constant and activation enthalpy in Table 1 (and used in FIG. 2) are from this refinement.

[2] = Reaction of metal complexes with superoxide (pulse radiolysis and literature rate data); format: physicochemical; details: manganese(II) complexes, pulse radiolysis; for kapp,O2,B × 10^−2 (Superoxide Reaction Data): printed value is k × 10^−2; for kapp,O2,A × 10^−7 (Superoxide Reaction Data): printed value is k × 10^−7
Protocol: In addition, the rates at which O2.^− reacts with Fe^IIIPDTA^−, Mn^IIEDTA(H2O)^2−, Mn^IIPDTA^2−, and Mn^IIβ-EDDADP^2− were determined by pulse radiolysis. […] The data for the SOD enzyme was previously reported. See Viglino et al., J. Magn. Res., 1979, 34, 265. These reactivity patterns are consistent with literature precedents for similar complexes.
Rapid reactions of Fe^3+ with superoxide (O2.^−) appear to occur via inner-sphere mechanisms where metal/O2.^− association is rate limiting. Under this scenario, rates of metal/O2.^− reactions are expected to correlate with rates at which the metal complexes coordinate F^−.
In addition to metal/F^− association data, FIG. 2 includes published rate data for reactions of a water soluble manganese(III) porphyrin (Mn^IIITM-2-PyP^5+). One of the gray squares in FIG. 2 compares the rate of metal/MeOPH association to the catalytic rate constant for O2.^− dissmutation (kcat) for Mn^IIITM-2-PyP^5+. See Summers et al., Inorg. Chem., 2001, 40, 6547. Values of kcat for manganese(III) porphyrins are thought to be limited by rates of Mn^3+ reduction. See Batinic-Haberle et al., Inorg. Chem., 1999, 38, 4011-4022.

[3] = molecular target: T1, Cu/Zn SOD (Homo sapiens, UniProt P00441); details: 100 μM; Huang et al., Nature 2000; cited from earlier work
T1 sequence (P00441 whole entry): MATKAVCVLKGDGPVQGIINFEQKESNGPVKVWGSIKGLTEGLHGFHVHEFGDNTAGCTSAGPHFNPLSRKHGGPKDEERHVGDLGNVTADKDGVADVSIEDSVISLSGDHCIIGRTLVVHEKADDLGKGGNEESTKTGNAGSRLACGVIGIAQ

[4] = molecular target: T1, Cu/Zn SOD; assay: Reaction of Cu/Zn SOD with superoxide in the presence of an inhibitor; format: biochemical; details: 100 μM, 20 mM phosphate buffered saline pH 7.2 (neutral conditions)
Protocol: SOD was added to give an NMR relaxation rate of 28 s^−1. […] See Huang et al., Nature, 2000, 407, 390-395. […] It was also determined that under these conditions, reaction of the enzyme with superoxide was not inhibited.

[5] = cited from earlier work; for kapp,O2− (Superoxide Reaction): iron(III) complexes, aqueous solution, literature values (footnotes b, c, d, f); for kapp,O2,A (Superoxide Reaction Data): full value printed in cell
[6] = molecular target: SOD (Bos taurus, UniProt P00442); details: from Viglino et al. 1979; cited from earlier work
Chain of SOD (P00442 2-152 limits assumed): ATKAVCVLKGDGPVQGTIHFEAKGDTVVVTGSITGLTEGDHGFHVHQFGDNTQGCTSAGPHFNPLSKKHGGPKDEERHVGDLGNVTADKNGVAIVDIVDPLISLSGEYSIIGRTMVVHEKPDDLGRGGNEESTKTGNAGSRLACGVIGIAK

[7] = trend line of FIG. 8; pH 4.0 to 9.2
Protocol: While Fe^IIIEDTA(OH)^2− is usually formed by deprotonation of coordinated water, its formation can also be thought of (in thermodynamic terms) as a ligand exchange. To investigate the thermodynamics of the formation of Fe^IIIEDTA(OH)^2−, the reaction of F^− with Fe^IIIEDTA(H2O)^− was studied as a function of pH. For Fe^IIIEDTA(H2O)^−, relaxation enhancements were measured for thirteen buffer conditions, having pH values ranging from 4.0 to 9.2. […] In this pH range, F^− 19F relaxation enhancement is governed by two protic equilibria, hydrolysis of Fe^IIIEDTA(H2O)^− and protonation of F^−, as described by Equations 9 and 10:
Fitting the data at pH>6 gives the thermodynamic equilibrium data for hydroxide binding.

[8] = MeOPH^− association; from Summers et al. 2001; cited from earlier work

## O=C([O-])CCN(CCN(CCC(=O)[O-])CC(=O)[O-])CC(=O)[O-].[Mn+2] [Mn^IIβ-EDDADP^2−]
[1]
  ΔH^‡ (Anion Binding Data): 5.26 kcal/mol
[1]; pH 7
  kapp,X− (Anion Binding Data): 130000 M⁻¹ s⁻¹
[2]
  kapp,O2,B × 10^−2 (Superoxide Reaction Data): 3.5 ± 0.7 s^−1
  kapp,O2,A × 10^−7 (Superoxide Reaction Data): 1.95 ± 0.40 M^−1s^−1

## O.O=C([O-])CN(CCN(CC(=O)[O-])CC(=O)[O-])CC(=O)[O-].[Mn+2] [Mn^IIEDTA(H2O)^2−]
[1]
  ΔH^‡ (Anion Binding Data): 7.41 kcal/mol
[1]; pH 7
  kapp,X− (Anion Binding Data): 60000 M⁻¹ s⁻¹
[2]
  kapp,O2,B × 10^−2 (Superoxide Reaction Data): 4.0 ± 0.8 s^−1
  kapp,O2,A × 10^−7 (Superoxide Reaction Data): 1.24 ± 0.24 M^−1s^−1

## COc1cc2c(cc1O)CC[C@@H]1[C@@H]2CC[C@]2(C)[C@@H](O)CC[C@@H]12 [Complex 2ME2, 2-methoxyestradiol]
[3]
  inhibition of Cu/Zn SOD previously reported: complete inhibition
[4]
  reaction of the enzyme with superoxide: not inhibited

## O=C([O-])CN(CCN(CC(=O)[O-])CC(=O)[O-])CCN(CC(=O)[O-])CC(=O)[O-].[Fe+3] [Fe^IIIDTPA^2−, iron (III) diethylenetriaminepentaacetate]
[5]
  kapp,O2− (Superoxide Reaction): 6 × 10^3 (c) M^−1s^−1
[1]; pH 6
  kapp,X− (Flouride Association Reaction): 240 M⁻¹ s⁻¹
[1]
  ΔH^‡ (Flouride Association Reaction): 5.26 kcal/mol

## F [fluoride, fluoride anion]
[6]
  association constant for fluoride binding: 1.2 M⁻¹

## O=C([O-])CN(CCN(CCN(CC(=O)[O-])CC(=O)[O-])CC(=O)[O-])CCN(CC(=O)[O-])CC(=O)[O-].[Fe+3].[Fe+3].[O-2] [Fe^III2O(TTHA)^2−]
[5]
  kapp,O2− (Superoxide Reaction): 1.2 × 10^4 (d) M^−1s^−1
[1]; pH 6
  kapp,X− (Flouride Association Reaction): 12 M⁻¹ s⁻¹
[1]
  ΔH^‡ (Flouride Association Reaction): 9.32 kcal/mol

## O=P([O-])([O-])[O-].[Mn+2] [Mn^IIPO4 ^−]
[5]; pH 6, from Cabelli and Bielski
  kapp,O2,A (Superoxide Reaction Data): 5.0 × 10^7 (b,c) M^−1s^−1
[1]
  ΔH^‡ (Anion Binding Data): 10 kcal/mol
[1]; pH 6
  kapp,X− (Anion Binding Data): 1.8 × 10^6 (b) M^−1s^−1

## O.O=C([O-])CN(CCN(CC(=O)[O-])CC(=O)[O-])CC(=O)[O-].[Fe+3] [Fe^IIIEDTA(H2O)^−, iron (III) ethylenediamine-N,N,N″,N″-tetraacetic acid hydrate]
[5]
  kapp,O2− (Superoxide Reaction): 1.9 × 10^6 (f) M^−1s^−1
[1]; pH 6
  kapp,X− (Flouride Association Reaction): 93000 M⁻¹ s⁻¹
[1]
  ΔH^‡ (Flouride Association Reaction): 9.32 kcal/mol
[1]; trend line of FIG. 8, pH 4.0 to 9.2
  apparent rate constant for F^− association: 4e+06 M⁻¹ s⁻¹
[7]
  apparent rate constant for HF association: 93000 M⁻¹ s⁻¹

## O.O.O.O.O.O.[Mn+2] [Mn^II(H2O)6^2+]
[5]; from Pick-Kaplan and Rabini
  kapp,O2,A (Superoxide Reaction Data): 1.1 × 10^8 (f) M^−1s^−1
[8]
  kapp,X− (Anion Binding Data): 5.8 × 10^6 (e) M^−1s^−1
  ΔH^‡ (Anion Binding Data): 47 ^(e) kJ/mol
